Test results published in US6277872A, “Oxadiazoles, processes for their preparation and their use as medicaments” (Boehringer Ingelheim KG, priority 1996, dated 2001).

Experiments:
AMPA receptor = assay: Inhibition of the cainate-induced signal at the AMPA receptor, electrophysiology on neuronal cells (Patch-Clamp-Method); format: cell-based; conditions: test concentration of 100 μM
Experimental: The tests were carried out at a test concentration of 100 μM.

[1] = system: "Na+ channel site 2"-binding site; assay: Binding to the Na+ channel site 2 binding site ([3H]-BTX); conditions: test concentration typically 10 μM
Experimental: (§1) The tests were typically carried out at a test concentration of 10 μM.

Histamine H1 receptor = target: T1, Histamine H1 receptor (Cavia porcellus, UniProt P31389); assay: Histamine H1 receptor binding study; conditions: test concentration typically 10 μM; read-out: H1 Inh. [%]
T1 construct: from tissue
T1 sequence (P31389 whole entry): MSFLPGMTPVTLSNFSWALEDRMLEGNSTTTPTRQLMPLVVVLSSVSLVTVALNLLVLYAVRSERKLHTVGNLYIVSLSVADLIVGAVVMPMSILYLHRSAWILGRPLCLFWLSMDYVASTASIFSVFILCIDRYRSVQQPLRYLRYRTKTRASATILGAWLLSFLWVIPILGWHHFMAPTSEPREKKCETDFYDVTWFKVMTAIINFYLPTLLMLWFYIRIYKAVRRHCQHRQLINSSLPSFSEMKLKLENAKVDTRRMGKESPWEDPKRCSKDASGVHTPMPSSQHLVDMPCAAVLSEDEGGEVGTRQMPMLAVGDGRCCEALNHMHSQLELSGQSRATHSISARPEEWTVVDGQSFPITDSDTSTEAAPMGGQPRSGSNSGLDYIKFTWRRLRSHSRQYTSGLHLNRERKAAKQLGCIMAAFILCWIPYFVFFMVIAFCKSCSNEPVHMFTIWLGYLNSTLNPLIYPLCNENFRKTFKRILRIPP
Text: Table 5 summarises the inhibitory values on the above receptors:

Sigma receptor = Sigma receptor binding study; conditions: test concentration typically 10 μM
Experimental: as §1

[2] = system: permanent focal cerebral ischaemia (MCAO); assay: Stroke model in the rat, permanent focal cerebral ischaemia by occlusion of the arteria cerebri media (MCAO); format: in vivo
Text: A permanent focal cerebral ischaemia was induced by surgical occlusion of the arteria cerbri media (MCAO) (based on A. Tamura, D. I. Graham, J. McCulloch and G. M. Teasdale, J. Cereb. Blood Flow Metab. 1 (1981) 53-60).

| SMILES | Na+-channel Inh. [%] ([3H]-BTX) [1] | inhibition at 10 µM (Histamine H1 receptor) [%] | Sigma Inh. [%] (Sigma receptor) | AMPA Inh. [%] (inhibiting the cainate-induced signal at the AMPA receptor) (AMPA receptor) | volume of the lesion [2] |
| --- | --- | --- | --- | --- | --- |
| CN(C)CCOc1ccccc1-c1nc(-c2cccc(Br)c2)no1 [Example 48, 5-{2-[2-(N,N-Dimethylamino)-ethyl]oxy-phenyl}-3-(3-bromophenyl)-1,2,4-oxadiazole] | 85 | 78 | 74 | 85 | – |
| CN(C)CCOc1ccccc1-c1nc(-c2ccco2)no1 [Example 57, 5-{2-[2-(N,N-Dimethylamino)-ethyl]oxy-phenyl}-3-(2-furyl)-1,2,4-oxadiazole] | 54 | 90 | 49 | 51 | – |
| CN(C)CCOc1ccccc1-c1nc(-c2cccc(Cl)c2)no1 [Example 59, 5-{2-[2-(N,N-Dimethylamino)-ethyl]oxy-phenyl}-3-(3-chlorophenyl)-1,2,4-oxadiazole] | 70 | 84 | 82 | 54 | – |
| CN(C)CCOc1ccccc1-c1nc(-c2ccccc2Br)no1 [Example 64, 5-{2-[2-(N,N-Dimethylamino)-ethyl]oxy-phenyl}-3-(2-bromo-phenyl)-1,2,4-oxadiazole] | 99 | 88 | 76 | 65 | – |

Second part, led by results:

| Na+-channel Inh. [%] ([3H]-BTX) [1] | inhibition at 10 µM (Histamine H1 receptor) [%] | Sigma Inh. [%] (Sigma receptor) | SMILES | AMPA Inh. [%] (inhibiting the cainate-induced signal at the AMPA receptor) (AMPA receptor) | volume of the lesion [2] |
| --- | --- | --- | --- | --- | --- |
| 86 | 99 | 62 | CN(C)CCOc1ccccc1-c1nc(-c2ccccc2)no1 [Example 2, 5-{2-[2-(N,N-dimethylamino)ethyl]oxy-phenyl}-3-phenyl-1,2,4-oxadiazole] | 86 | reduce the volume of the lesion significantly |
| 92 | 90 | 54 | Cc1ccc(-c2nc(-c3ccccc3)no2)c(OCCN(C)C)c1 [Example 67, 5-{2-[2-(N,N-Dimethylamino)-ethyl]oxy4-methyl-phenyl}-3-phenyl-1,2,4-oxadiazole] | 28 | – |
| 100 | 74 | 79 | Cc1cccc(-c2nc(-c3ccccc3)no2)c1OCCN(C)C [Example 68, 5-{2-[2-(N,N-Dimethylamino)-ethyl]oxy-3-methyl-phenyl}-3-phenyl-1,2,4-oxadiazole] | 81 | – |
